Values quoted from earlier work in US10576045B2 (priority 2012, dated 2020).

What was measured:
[1] = 60 mg/day
[2] = reboxetine 4 mg/day coadministered with olanzapine
[3] = test system: serotonin reuptake
[4] = test system: anticholinergic binding; details: different animal models
[5] = test system: dopamine reuptake
[6] = obese patients with BED; 8 mg/day of reboxetine for 12 days
[7] = test system: monoamine oxidase (MAO)

| Compound | difference between treatment and placebo groups ([1]; end of the study, week 52) | weight loss compared to placebo ([1]; following 28 weeks of treatment) | weight-gain associated with olanzapine administration [2] | serotonin reuptake inhibitory activity [3] | anticholinergic binding activity [4] | dopamine reuptake inhibitory activity [5] | binge eating behavior [6] | monoamine oxidase (MAO) inhibitory activity [7] |
| --- | --- | --- | --- | --- | --- | --- | --- | --- |
| CNCCC(Oc1ccc(C(F)(F)F)cc1)c1ccccc1 (racemic) [fluoxetine, (+−)-N-methyl-3-(p-trifluoromethylphenoxy)-3-phenylpropyl-amine] | no difference | statistically significant weight loss |  |  |  |  |  |  |
| CCOc1ccccc1O[C@H](c1ccccc1)[C@H]1CNCCO1 (relative stereo) [reboxetine, (R*,R*)-2-[(2-ethoxyphenoxy)-phenyl-methyl]morpholine] |  |  | reduced the weight-gain | only marginal | no anticholinergic binding activity | no | reduced binge eating behavior | substantially devoid |
